Assay results from US20100068150A1, “Selective Caspase Inhibitors” (The Board of Trustees of the Leland Stanford Junior …, priority 2006, published 2010).

What was measured:
Format in all cases: biochemical
Caspase-3 = target: T1, Caspase-3 (Homo sapiens, UniProt P42574); test: Kinetic compound screening, progress curve method, caspase-3; conditions: for Ki(app) Caspase-3: Table III, Ki(app) = Kass or Kobs/I, 5 nM active caspase-3; for Caspase-3 Ki(app): Table IV
T1 sequence (P42574 29-175 limits assumed): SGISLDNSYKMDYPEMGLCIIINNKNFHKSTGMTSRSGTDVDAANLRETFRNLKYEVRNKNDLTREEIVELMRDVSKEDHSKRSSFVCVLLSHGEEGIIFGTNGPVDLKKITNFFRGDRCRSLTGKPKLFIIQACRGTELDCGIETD
T1 sequence (P42574 176-277 limits assumed): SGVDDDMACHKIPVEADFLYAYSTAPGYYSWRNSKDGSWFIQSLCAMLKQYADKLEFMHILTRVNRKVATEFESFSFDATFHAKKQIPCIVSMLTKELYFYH
Source text: (§1) Table III below presents Ki(app) values for select AB compounds. Ki(app) values (also called Kass or Kobs/I) represent the speed of inhibitor binding to a target enzyme. Units are [M^−1s^−1]. NI indicates no inhibition at concentrations tested. Parent compounds AB09, ABo8, and AB07 that include the optimal substrate specificity sequences for caspases-3, […] as determined by Thornberry and colleagues (Thornberry et al., 19970 are included between double lines.
(§2) The inhibitors AB07 (NP-LEHD-AOMK, caspase-9), AB08 (NP-LETD-AOMK, caspase-8), and AB09 (NP-DEVD-AOMK, caspase-3) were synthesized and kinetic inhibition constants (Kiapp) were obtained for all compounds for caspases 3, 7, 8 and 9 using the progress curve method for pseudo-first order reactions kinetics (Salvesen, 1989) (structures shown in Table I). […] Ki(app) values (also called Kass or Kobs/I) represent the speed of inhibitor binding to a target enzyme. Units are [M-1s-1]. NI indicates no inhibition at concentrations tested, ND indicates data not determined, SD indicates standard deviation.
(§3) Compound screening was completed using the progress curve method as described (Salvesen, 1989). All screening was carried out in caspase reaction buffer. The caspase-9 specific compounds AB38, 40, 41 and 42 were screened in caspase reaction buffer and in caspase buffer with 1M sodium citrate instead of sucrose as described (Pop, 2006) The concentrations of active caspases used is as follows: 5 nM active caspase-3, 5 nM active caspase-7, 10 nM active caspase-8, and 50 nM active caspase-9. To ensure full activation, caspases 3/7, 8 and 9 were preincubated at 37° C. for 5, 10, or 40 minutes respectively before kinetic measurements were made.

Caspase-7 = target: T2, Caspase-7 (Homo sapiens, UniProt P55210); test: Kinetic compound screening, progress curve method, caspase-7; conditions: for Ki(app) Caspase-7: Table III, Ki(app) = Kass or Kobs/I, 5 nM active caspase-7; for Caspase-7 Ki (app): Table IV
T2 sequence (P55210 1-303): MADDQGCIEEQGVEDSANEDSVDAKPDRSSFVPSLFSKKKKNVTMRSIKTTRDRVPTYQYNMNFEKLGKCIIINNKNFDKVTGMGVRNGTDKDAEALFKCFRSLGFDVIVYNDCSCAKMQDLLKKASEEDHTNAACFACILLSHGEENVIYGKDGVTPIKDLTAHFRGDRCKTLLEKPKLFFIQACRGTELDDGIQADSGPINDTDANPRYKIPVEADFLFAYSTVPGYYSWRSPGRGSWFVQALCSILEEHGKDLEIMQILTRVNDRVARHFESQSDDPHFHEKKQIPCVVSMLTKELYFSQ
Source text: as §1, §2, §3

Caspase-8 = Caspase-8 (Homo sapiens, UniProt Q14790); test: Kinetic compound screening, progress curve method, caspase-8; conditions: for Ki(app) Caspase-8: Table III, Ki(app) = Kass or Kobs/I, 10 nM active caspase-8; for Caspase-8 Ki (app): Table IV, NI = no inhibition at concentrations tested
Sequence of Caspase-8 (Q14790 217-479): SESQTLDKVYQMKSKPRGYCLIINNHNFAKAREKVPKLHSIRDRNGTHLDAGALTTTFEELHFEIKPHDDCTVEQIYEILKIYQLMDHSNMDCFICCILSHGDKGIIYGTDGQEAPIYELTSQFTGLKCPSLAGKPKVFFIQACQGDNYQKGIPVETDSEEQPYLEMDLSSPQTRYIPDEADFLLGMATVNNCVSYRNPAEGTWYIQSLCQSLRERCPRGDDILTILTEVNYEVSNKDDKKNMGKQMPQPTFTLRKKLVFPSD
Source text: as §1, §2, §3

Caspase-9 = target: T3, Caspase-9 (Homo sapiens, UniProt P55211); test: Kinetic compound screening, progress curve method, caspase-9; conditions: for Ki(app) Caspase-9: Table III, Ki(app) = Kass or Kobs/I, 50 nM active caspase-9; for Ki(app) Caspase-9 / Caspase-9 Ki (app): NI = no inhibition at concentrations tested; for Caspase-9 Ki (app): Table IV
T3 sequence (P55211 1-416): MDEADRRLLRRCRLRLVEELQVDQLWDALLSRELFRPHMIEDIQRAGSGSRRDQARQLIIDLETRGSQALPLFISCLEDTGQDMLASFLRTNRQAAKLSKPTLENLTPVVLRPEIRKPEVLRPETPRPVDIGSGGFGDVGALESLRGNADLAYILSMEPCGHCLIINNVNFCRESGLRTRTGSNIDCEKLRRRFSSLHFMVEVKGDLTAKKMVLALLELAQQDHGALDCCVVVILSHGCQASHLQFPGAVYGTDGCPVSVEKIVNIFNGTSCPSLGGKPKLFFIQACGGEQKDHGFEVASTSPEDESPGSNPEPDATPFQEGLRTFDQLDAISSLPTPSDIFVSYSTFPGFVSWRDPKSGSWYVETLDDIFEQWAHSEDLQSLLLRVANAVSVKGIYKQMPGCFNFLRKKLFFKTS
Source text: as §1, §2, §3

Ki(app) Caspase-3 (Caspase-3)	Ki(app) Caspase-7 (Caspase-7)	Caspase-7 Ki (app) (Caspase-7)	Ki(app) Caspase-8 (Caspase-8)	Caspase-8 Ki (app) (Caspase-8)	Ki(app) Caspase-9 (Caspase-9)	Caspase-9 Ki (app) (Caspase-9)	SMILES	Caspase-3 Ki(app) (Caspase-3)	inhibition of caspase-8, in words (Caspase-8)	activity for caspase-9, in words (Caspase-9)
5,652,900 M^−1s^−1	783,840 M^−1s^−1	783,840 M-1s-1	271,626 M^−1s^−1	271,626 M-1s-1	–	–	Cc1ccc(C[C@H](NC(=O)[C@H](CC(=O)O)NC(=O)Cc2ccc(O)c([N+](=O)[O-])c2)C(=O)N[C@H](C(=O)N[C@@H](CC(=O)O)C(=O)COC(=O)c2c(C)cccc2C)C(C)C)cc1 [AB12, Np-D-E-29-V-D-DMBA]	5,652,900 M-1s-1	–	–
2,482,333 M^−1s^−1	199,341 M^−1s^−1	199,341 M-1s-1	580,547 M^−1s^−1	580,547 M-1s-1	47,362 M^−1s^−1	47,362 M-1s-1	Cc1cccc(C)c1C(=O)OCC(=O)[C@H](CC(=O)O)NC(=O)C1CCCN1C(=O)[C@@H](CCC(=O)O)NC(=O)[C@H](CC(=O)O)NC(=O)Cc1ccc(O)c([N+](=O)[O-])c1 (stereo partly drawn) [AB11, NP-D-E- P-D-DMBA]	2,482,333 M-1s-1	–	–
–	–	–	–	–	–	–	Cc1cccc(C)c1C(=O)OCC(=O)[C@H](CC(=O)O)NC(=O)[C@@H](NC(=O)[C@@H](NC(=O)[C@H](Cc1ccc2ccccc2c1)NC(=O)Cc1ccc(O)c([N+](=O)[O-])c1)c1ccccc1)C(C)C [AB15, Np-26-34-V-D-DMBA]	133,705 M-1s-1	–	–
–	–	–	–	–	–	–	Cc1ccc(C[C@H](NC(=O)[C@H](CC(=O)O)NC(=O)Cc2ccc(O)c([N+](=O)[O-])c2)C(=O)NC2(C(=O)N[C@@H](CC(=O)O)C(=O)COC(=O)c3c(C)cccc3C)CC2)cc1 [AB30, Np-D-30-11-D-DMBA]	448,179 M-1s-1	–	–
781,733 M^−1s^−1	448,155 M^−1s^−1	448,155 M-1s-1	126,323 M^−1s^−1	126,323 M-1s-1	–	–	Cc1cccc(C)c1C(=O)OCC(=O)[C@H](CC(=O)O)NC(=O)[C@@H](NC(=O)C(CCC(=O)O)NC(=O)[C@H](Cc1ccc2ccccc2c1)NC(=O)Cc1ccc(O)c([N+](=O)[O-])c1)C(C)C (stereo partly drawn) [AB17, Np-26-E-V-D-DMBA]	781,733 M-1s-1	–	–
216,040 M^−1s^−1	234,945 M^−1s^−1	234,945 M-1s-1	572,012 M^−1s^−1	572,012 M-1s-1	12,320 M^−1s^−1	12,320 M-1s-1	Cc1cccc(C)c1C(=O)OCC(=O)[C@H](CC(=O)O)NC(=O)[C@@H](NC(=O)[C@H](CCC(=O)O)NC(=O)[C@H](Cc1ccc(I)cc1)NC(=O)Cc1ccc(O)c([N+](=O)[O-])c1)C(C)O (stereo partly drawn) [AB18, NP-31-E-T-D-DMBA]	216,040 M-1s-1	–	–
570,900 M^−1s^−1	181,332 M^−1s^−1	181,332 M-1s-1	1,071,401 M^−1s^−1	1,071,401 M-1s-1	41,300 M^−1s^−1	41,300 M-1s-1	Cc1ccc(C[C@H](NC(=O)Cc2ccc(O)c([N+](=O)[O-])c2)C(=O)N[C@@H](CCC(=O)O)C(=O)N[C@H](C(=O)N[C@@H](CC(=O)O)C(=O)COC(=O)c2c(C)cccc2C)C(C)O)cc1 (stereo partly drawn) [AB20, Np-29-E-T-D-DMBA]	570,900 M-1s-1	highest kinetic inhibition constants for caspase-8 that we have measured so far	–
–	–	–	–	–	–	–	Cc1ccc(C[C@@H](NC(=O)[C@H](CC(=O)O)NC(=O)Cc2ccc(O)c([N+](=O)[O-])c2)C(=O)N[C@H](C(=O)N[C@@H](CC(=O)O)C(=O)COC(=O)c2c(C)cccc2C)C(C)C)cc1 [AB31, Np-D-30-V-D-DMBA]	64,873 M-1s-1	–	–
127,835 M^−1s^−1	19,424 M^−1s^−1	19,424 M-1s-1	599,788 M^−1s^−1	599,788 M-1s-1	<5,000 M^−1s^−1	<5,000 M-1s-1	Cc1cccc(C)c1C(=O)OCC(=O)[C@H](CC(=O)O)NC(=O)[C@@H](NC(=O)[C@H](CCC(=O)O)NC(=O)[C@H](CC(C)C)NC(=O)Cc1ccc(O)c([N+](=O)[O-])c1)C(C)O (stereo partly drawn) [AB08, Np-L-E- T-D-DMBA]	127,835 M-1s-1	–	–

SMILES	Ki(app) Caspase-3 (Caspase-3)	Ki(app) Caspase-7 (Caspase-7)	Caspase-7 Ki (app) (Caspase-7)	Ki(app) Caspase-8 (Caspase-8)	Caspase-8 Ki (app) (Caspase-8)	Ki(app) Caspase-9 (Caspase-9)	Caspase-9 Ki (app) (Caspase-9)	Caspase-3 Ki(app) (Caspase-3)	inhibition of caspase-8, in words (Caspase-8)	activity for caspase-9, in words (Caspase-9)
Cc1cccc(C)c1C(=O)OCC(=O)[C@H](CC(=O)O)NC(=O)[C@H](Cc1cc[nH]c1)NC(=O)[C@H](CCC(=O)O)NC(=O)[C@H](CC(C)C)NC(=O)Cc1ccc(O)c([N+](=O)[O-])c1 [AB07, Np-L-E- H-D-DMBA]	75,295 M^−1s^−1	10,447 M^−1s^−1	10,447 M-1s-1	506,912 M^−1s^−1	506,912 M-1s-1	20,141 M^−1s^−1	41 M⁻¹ s⁻¹	75,295 M-1s-1	more rapid inhibition of caspase-8	–
Cc1cccc(C)c1C(=O)OCC(=O)[C@H](CC(=O)O)NC(=O)[C@@H](NC(=O)[C@H](CCC(=O)O)NC(=O)[C@H](Cc1ccc(I)cc1)NC(=O)Cc1ccc(O)c([N+](=O)[O-])c1)C1Cc2ccccc2C1 [AB19, NP-31-E-23-D-DMBA]	179,086 M^−1s^−1	42,994 M^−1s^−1	42,994 M-1s-1	396,225 M^−1s^−1	396,225 M-1s-1	–	–	179,086 M-1s-1	retained relatively good potency for caspase-8	no measurable activity for caspase-9
Cc1cccc(C)c1C(=O)OCC(=O)[C@H](CC(=O)O)NC(=O)[C@@H](NC(=O)[C@H](Cc1ccccn1)NC(=O)[C@H](Cc1ccc2ccccc2c1)NC(=O)Cc1ccc(O)c([N+](=O)[O-])c1)C(C)C [AB16, Np-26-3-V-D-DMBA]	484,495 M^−1s^−1	24,185 M^−1s^−1	24,185 M-1s-1	121,650 M^−1s^−1	121,650 M-1s-1	–	–	484,495 M-1s-1	–	–
Cc1cccc(C)c1C(=O)OCC(=O)[C@H](CC(=O)O)NC(=O)C1(NC(=O)[C@H](CCC(=O)O)NC(=O)[C@H](CC(=O)O)NC(=O)Cc2ccc(O)c([N+](=O)[O-])c2)CC1 [AB29, Np-D-E-11-D-DMBA]	–	–	–	–	90,503 M-1s-1	–	–	341,429 M-1s-1	–	–
Cc1cccc(C)c1C(=O)OCC(=O)[C@H](CC(=O)O)NC(=O)[C@@H](NC(=O)[C@@H](NC(=O)[C@H](CC(=O)O)NC(=O)Cc1ccc(O)c([N+](=O)[O-])c1)c1ccccc1)C(C)C [AB13, Np-D-E-34-V-D-DMBA]	3,416,050 M^−1s^−1	279,519 M^−1s^−1	279,519 M-1s-1	<5,000 M^−1s^−1	<5,000 M-1s-1	–	–	3,416,050 M-1s-1	–	–
